# Experimental data reported in patent US20250250227A1, “AMINO LIPID COMPOUND, PREPARATION METHOD THEREFOR, COMPOSITION THEREOF AND USE THEREOF” (SHENZHEN SHENXIN BIOTECHNOLOGY CO., LTD., priority 2022, published 2025).
# Tests used:
# [1] = tested on: Female BALB/c mice; test: In vivo safety of hEPO mRNA lipid nanoparticle: serum alanine aminotransferase (ALT) enzyme activity; conditions: hEPO mRNA LNP, 300 μL IV, serum 12 h after injection; FIG. 1
# Procedure: A human erythropoietin mRNA (hEPO mRNA)-encapsulating lipid nanoparticle formulation was prepared according to the method as described in Experimental Example 1, with replacing the luciferase mRNA (Fluc mRNA) with human erythropoietin mRNA (hEPO mRNA), with a concentration of hEPO mRNA of 0.2 g/L, a mass ratio of hEPO mRNA to Lipid of 1:10, a particle size of 90-130 nm, and an encapsulation efficiency of above 90% or higher.
# (§1) Animal preparation: Female BALB/c mice of 6-8 weeks old were selected and raised in an SPF grade breeding room. Animal testing was conducted in strict accordance with the guidelines of national health institutions and animal ethics requirements.
# In vivo Delivery: Prior to injection of the test LNP formulations, the LNP formulations were gently and repeatedly inverted to thoroughly mix the formulation samples. A corresponding amount of the formulation samples were aspirated with a 1 ml insulin syringe, and the LNP formulations were injected by tail vein injection (IV), with 5 mice per formulation. Each mouse was injected with 300 μL of the human erythropoietin mRNA (hEPO mRNA)-encapsulating lipid nanoparticle formulation.
# Serum acquisition: Blood samples of mice were collected 12 h after injection, placed in tubes without anticoagulants, and naturally coagulated at room temperature for 30-60 min, and then centrifuged at a speed of 3500 rpm for 10 min to obtain the supernatant, which was the serum.
# The detection of alanine transaminase was carried out according to instructions of the kit (Nanjing Jiancheng Bioengineering Institute, Catalog. No. C009-2-1), and a standard curve was made using the standard provided in the kit. D-PBS was used in the experiment, which was purchased from Sangon Biotech (Shanghai) Co., Ltd., Catalog No. E607009-0600.
# The method of detection of enzyme activity of alanine aminotransferase (ALT) in serum of the mice is as follows:
# • (1) Enzymatic reaction: 0, 2, 4, 6, 8 and 10 μL of […] sodium pyruvate standard solution were sequentially added to 5 μL of 0.1 mol/L phosphate buffer, and the volume was supplemented to 25 μL with a matrix solution, and repeatedly aspirating and spitting with a pipette for mixing well; • (2) Addition reaction: 20 μL 2,4-dinitrophenylhydrazine solution was added to all reaction wells in (1), mixed by aspirating and spitting, and then placed in an incubator at 37° C. to react for 20 min; • (3) Developing: 200 μL of 0.4 mol/L NaOH solution was added to all reaction wells in (2) to stop the reaction, mixed by aspirating and spitting, and incubated at room temperature for 15 min. The OD value of each well was measured at 510 nm in a microplate reader; and • (4) Data processing of standard curve: The corresponding absolute OD value for each well was obtained by subtracting the OD value for 0 μL well from the measured OD value for each well, the corresponding ALT Karmen units being 0, 28, 57, 97, 150 and 200 U/L, respectively. The standard curve was obtain by taking the absolute OD value as the abscissa and the corresponding Karmen unit as the ordinate.
# • (1) Reagent preparation: an ALT matrix solution was placed in an incubator at 37° C. for preheating; • (2) Enzymatic reaction: 5 μL diluted serum was aspirated and added to a 96-well plate, then 20 μL matrix solution was added to the corresponding sample well and mixed by repeatedly aspirating and spitting to avoid bubbling, and then placed in an incubator at 37° C. for 30 min; • (3) Addition reaction: 20 μL 2,4-dinitrophenylhydrazine was added to all reaction wells in (2), mixed by aspirating and spitting, and then reacted in an incubator at 37° C. for 20 min; • (4) Developing: 200 μL of 0.4 mol/L NaOH solution was added to all reaction wells in (3) to stop the reaction, mixed by aspirating and spitting, and then incubated at room temperature for 15 min. […]
# [2] = Preparation and characterisation of mRNA-encapsulating lipid nanoparticle (encapsulation efficiency, particle size); type: physicochemical; conditions: LNP encapsulating Fluc mRNA; Lipid:DSPC:CHO-HP:M-DMG-2000 48:10:40.5:1.5
# Procedure: A specified amount of Fluc mRNA stock solution, 0.2 M sodium acetate buffer, and DEPC water were added to a container, and mixed well to obtain a water phase;
# The amino lipid compound of the present disclosure, a helper lipid, a structural lipid, and a PEG-lipid were separately dissolved in absolute ethanol to prepare respective solutions at concentrations of 20 mg/mL, 10 mg/mL, 20 mg/mL, and 25 mg/mL, respectively. The above four solutions were pipetted at a molar ratio of Lipid:DSPC:CHO—HP:M-DMG-2000 of 48:10:40.5:1.5, and mixed well to prepare an alcohol phase. • (2) Encapsulation: The water phase and the alcohol phase were injected into a microfluidic chip at a flow rate of water phase: alcohol phase=12 mL/min: 4 mL/min by using a microfluidic preparation instrument (MPE-L2), and encapsulation was carried out at a flow rate of water phase: alcohol phase=9 mL/min: 3 mL/min to obtain mRNA-encapsulating lipid nanoparticle (mRNA-LNP). • (3) Dialysis: The product of step (2) was loaded in a dialysis bag and placed in a Tris Buffer-8% sucrose solution for replacement to remove ingredients such as residual ethanol, unassembled lipids. Dialysis was conducted for 2 h with magnetic stirring at room temperature and under protection from light (dialysate was replaced every 1 hour). • (4) The product of step (3) was sterilized by passing through a […] microporous membrane, and then packaged.
# Lipid nanoparticle formulations encapsulating Fluc mRNA were prepared, with a concentration of Fluc mRNA of 0.2 g/L, a mass ratio of Fluc mRNA to Lipid of 1:10, a particle size of 80-130 nm, and a encapsulation efficiency of 85% or higher.
# The encapsulation efficiency of the lipid nanoparticle encapsulating luciferase mRNA (Fluc mRNA) with a representative amino lipid compound and the fluorescence expression intensity induced by the same are shown in Table 4, with the amino lipid compound 118 as a control. […]
# [3] = tested on: Female BALB/c mice; test: Performance evaluation of in vivo delivery of Fluc mRNA lipid nanoparticle (IVIS, body and organs); conditions: Fluc mRNA LNP; for Liver (fluorescence expression intensity) / Spleen (fluorescence expression intensity): 75 μL IV; for Liver (fluorescence expression intensity) / Spleen (fluorescence expression intensity) / Total flux (fluorescence expression intensity) / (Spleen/Total Flux) * 100%: 6 hours after injection; for Liver (fluorescence expression intensity) / Spleen (fluorescence expression intensity) / Total flux (fluorescence expression intensity): IVIS; for Total flux (fluorescence expression intensity): 75 μL tail vein injection (IV); for (Spleen/Total Flux) * 100% / Multiple of spleen delivery/total delivery to amino lipid compound 118: IV; for Multiple of spleen delivery/total delivery to amino lipid compound 118: relative to amino lipid compound 118
# Procedure: as §1
# In vivo Delivery: prior to injection of the test LNP formulations, the LNP formulations were gently and repeatedly inverted to thoroughly mix the formulation samples. A corresponding amount of the formulation samples were aspirated with a 1 ml insulin syringe, and the LNP formulations were injected by tail vein injection (IV), with 3 mice in duplicate per formulation. Each mouse was injected with 75 μL of the luciferase mRNA (Fluc mRNA)-encapsulating lipid nanoparticle formulation prepared in Experimental Example 1.
# 6 hours after injection of LNP formulations, mice were injected with 200 μL D-Luciferin luciferase developing substrate (Catalog No. 122799; Manufacturer: Perkin Elmer). After the substrate was injected, the mice were anesthetized with isoflurane inhalation, and the injection time of luciferase developing substrate was recorded.
# The encapsulation efficiency of the lipid nanoparticle encapsulating luciferase mRNA (Fluc mRNA) with a representative amino lipid compound and the fluorescence expression intensity induced by the same are shown in Table 4, with the amino lipid compound 118 as a control.
# The multiple of spleen delivery/total delivery of fluorescence expression intensity induced by lipid nanoparticle encapsulating luciferase mRNA (Fluc mRNA) with a representative amino lipid compound to amino lipid compound 118 is shown in Table 5.
# [4] = tested on: Female BALB/c mice; test: Humoral immunity test for total binding IgG antibody (ELISA, SARS-COV-2 antigen protein) in serum of immunized mice; type: in vivo; conditions: IN002.5.1 mRNA LNP, 50 μL IM, serum on 14th day after immunization; FIG. 5-6
# [5] = tested on: Female BALB/c mice; test: IFN-γ Elispot cellular immunity test, spleen lymphocytes of mice immunized with IN002.5.1 mRNA LNP; type: in vivo; conditions: 50 μL IM, spleen on 7th day after immunization, FIG. 2-4
# Procedure: An IN002.5.1 mRNA-encapsulating lipid nanoparticle formulation was prepared according to the method as described in Experimental Example 1, with replacing the luciferase mRNA (Fluc mRNA) with IN002.5.1 mRNA, with a concentration of IN002.5.1 mRNA of 0.2 g/L, a mass ratio of IN002.5.1 mRNA to Lipid of 1:10, a particle size of 80-130 nm, and an encapsulation efficiency of 90% or higher.
# The sequence of IN002.5.1 mRNA is one obtained by replacing all uracil (u) in SEQ ID NO. 1 with N1-methylpseudouridine. Of note is that the t (thymine) in the RNA sequence, SEQ ID NO. 1, in the Sequence Listing is actually u (uracil), according to the WIPO Standard ST. 26 for nucleotide or amino acid sequence listing.
# as §1
# Immunization of mice: Prior to injection of the test LNP formulations, the LNP formulations were gently and repeatedly inverted to thoroughly mix the formulation samples. A corresponding amount of the formulation samples were aspirated with a 1 ml insulin syringe, and the LNP formulations were injected by intramuscular injection (IM) […], with 8 mice per formulation. Each mouse was injected with 50 μL of the IN002.5.1 mRNA encapsulating lipid nanoparticle formulation.
# Spleen acquisition: On the 7th day after immunization, 3 to 4 mice from each LNP immunization group were selected and euthanized, and their spleens were acquired in a super clean bench.
# Isolation of lymphocytes: The spleens of mice were taken out in a super clean bench. 7 mL of mouse lymphocyte separation solution was added to a 6-well cell culture plate. Mouse spleen cells were ground with a syringe piston, and the suspension of the spleen cells was filtered through a cell screen and immediately transferred to a 15 mL centrifuge tube. […] RPMI 1640 medium was slowly added with keeping the liquid interface distinct. After centrifugation at 800 g with a horizontal rotor at room temperature for 30 minutes, a clear stratification can be visible. The lymphocyte layer was aspirated, then added with 10 mL RPMI 1640 medium, and inverted for washing. The cells were collected by centrifugation at 250 g for 10 min at room temperature, and the red blood cells were lysed. After completing lysis of red blood cells, the supernatant was poured, and the cells were resuspended in culture medium and counted.
# Addition of stimulant and culture of lymphocyte: RPMI-1640 medium containing 10% fetal bovine serum was used to activate the pre-coated plate. After standing at room temperature for at least 30 min, the medium was removed, and a cell suspension at adjusted concentration was added ([…]). The medium used to resuspend the cells was used as a background negative control. 10 μL positive stimulant working solution (PMA+Ionomycin (dissolved in DPBS) was added to a positive control well; […] medium used to resuspend the cells was added to a negative control well; 10 µL/well of a peptide library diluted with RPMI 1640 was added to experimental wells. After all samples and the stimulant were added, the plate was covered, incubated in an incubator with 5% CO2 at 37° C. for 16-24 h.
# Elispot detection after culture: The cells and the culture medium in the wells were dumped, and the wells were lysed with 200 μL/well of ice-cold deionized water at 4° C. for 10 min. The liquid in the wells were shaken out, and the wells were washed five times with PBS buffer. The wells were incubated with 100 μL/well of 1 μg/ml detection antibody for 2 h at room temperature; and after washing the plate 5 times with PBS, the wells were incubated with 100 μL/well of 1000-fold diluted enzyme labeled avidin (Streptavidin-HRP) for 1 h at room temperature. […]
smiles,measurement,setting,value
CCCCCCC(CCCCCC)OC(=O)CCCCCCCCC(CCCCCCCCC(=O)OC(CCCCCC)CCCCCC)OC(=O)N(CCCCCC(=O)OCCCC)CCCN(C)C [Compound 252],ALT enzyme activity (Karmen unit) compared to ALC0315 and SM-102,[1],significantly lower ALT enzyme activity
CCCCCCC(CCCCCC)OC(=O)CCCCCCCCC(CCCCCCCCC(=O)OC(CCCCCC)CCCCCC)OC(=O)N(CCCCC(=O)OCCCC)CCCN(C)C [Compound 255],ALT enzyme activity (Karmen unit) compared to ALC0315 and SM-102,[1],significantly lower ALT enzyme activity
CCCCCCC(CCCCCC)OC(=O)CCCCCCCCC(CCCCCCCCC(=O)OC(CCCCCC)CCCCCC)OC(=O)N(CCCC(=O)OCCCC)CCCN(C)C [Compound 259],Encapsulation efficiency,[2],94.08%
same,Liver (fluorescence expression intensity),[3],1.37E+08
same,Spleen (fluorescence expression intensity),[3],1.29E+07
same,Total flux (fluorescence expression intensity),[3],6.40E+08
same,(Spleen/Total Flux) * 100%,[3],2.02%
same,Multiple of spleen delivery/total delivery to amino lipid compound 118,[3],5.93
same,ALT enzyme activity (Karmen unit) compared to ALC0315 and SM-102,[1],significantly lower ALT enzyme activity
CCCCCCC(CCCCCC)OC(=O)CCCCCCCCC(CCCCCCCCC(=O)OC(CCCCCC)CCCCCC)OC(=O)N(CCCC(=O)OCCCCC)CCCN(C)C [Compound 260],Encapsulation efficiency,[2],95.36%
same,Liver (fluorescence expression intensity),[3],9.60E+07
same,Spleen (fluorescence expression intensity),[3],3.27E+06
same,Total flux (fluorescence expression intensity),[3],4.11E+08
same,(Spleen/Total Flux) * 100%,[3],0.80%
same,Multiple of spleen delivery/total delivery to amino lipid compound 118,[3],2.34
same,ALT enzyme activity (Karmen unit) compared to ALC0315 and SM-102,[1],significantly lower ALT enzyme activity
CCCCCCC(CCCCCC)OC(=O)CCCCCCCCC(CCCCCCCCC(=O)OC(CCCCCC)CCCCCC)OC(=O)N(CCCN(C)C)CC(=O)OCCC [Compound 269],Humoral immunity effect (IgG titer) compared to ALC0315,[4],better humoral immunity effect
CCCCCCC(CCCCCC)OC(=O)CCCCCCCCC(CCCCCCCCC(=O)OC(CCCCCC)CCCCCC)OC(=O)N(CCCCC(=O)OC(C)CC)CCCN(C)C (stereo not shown) [Compound 302],Cellular immunity effect (IFN-γ Elispot) compared to ALC0315,[5],better cellular immunity effect
CCCCCCC(CCCCCC)OC(=O)CCCCCCCCC(CCCCCCCCC(=O)OC(CCCCCC)CCCCCC)OC(=O)N(CCCC(=O)OC(C)C)CCCN(C)C [Compound 307],Cellular immunity effect (IFN-γ Elispot) compared to ALC0315,[5],better cellular immunity effect
